Toxic doses and inconclusive results are not listed.
System: L1210 leukemia ip in BDF1 mice, survival T/C
Assay: NCI In Vivo Anticancer Drug Screen. Data for tumor model L1210 Leukemia (intraperitoneal) in B6D2F1 (BDF1) mice
Details: endpoint: mean survival time, higher = longer survival
Procedure, shortened: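 Read-out is survival time, reported as the treated-group measurement over the vehicle-control measurement.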

[1] = dose: 100.0 mg/kg/injection, schedule: Q04DX003 (ip), vehicle: saline with Tween-80
[2] = dose: 200.0 mg/kg/injection, schedule: Q04DX003 (ip), vehicle: saline with Tween-80
[3] = dose: 100.0 mg/kg/injection, schedule: Q01DX001 (ip), vehicle: carboxymethylcellulose (CMC)
[4] = dose: 200.0 mg/kg/injection, schedule: Q01DX001 (ip), vehicle: carboxymethylcellulose (CMC)
[5] = dose: 400.0 mg/kg/injection, schedule: Q01DX001 (ip), vehicle: carboxymethylcellulose (CMC)
[6] = dose: 100.0 mg/kg/injection, schedule: Q04DX003 (ip), vehicle: saline
[7] = dose: 200.0 mg/kg/injection, schedule: Q04DX003 (ip), vehicle: saline
[8] = dose: 100.0 mg/kg/injection, schedule: Q04DX003 (ip), vehicle: Klucel (hydroxypropylcellulose) (HPC)
[9] = dose: 200.0 mg/kg/injection, schedule: Q04DX003 (ip), vehicle: Klucel (hydroxypropylcellulose) (HPC)
[10] = dose: 400.0 mg/kg/injection, schedule: Q04DX003 (ip), vehicle: Klucel (hydroxypropylcellulose) (HPC)
[11] = dose: 100.0 mg/kg/injection, schedule: Q01DX001 (ip), vehicle: saline
[12] = dose: 200.0 mg/kg/injection, schedule: Q01DX001 (ip), vehicle: saline
[13] = dose: 400.0 mg/kg/injection, schedule: Q01DX001 (ip), vehicle: saline

With `NC(=S)N/N=C/c1ccc([N+](=O)[O-])s1` the T/C (dose: 12.5 mg/kg/injection, schedule: Q01DX005 (ip), vehicle: water) was 102 % of control, the T/C (dose: 25.0 mg/kg/injection, schedule: Q01DX005 (ip), vehicle: water) was 98 % of control and the T/C (dose: 50.0 mg/kg/injection, schedule: Q01DX005 (ip), vehicle: water) was 93 % of control. The T/C (dose: 50.0 mg/kg/injection, schedule: Q04DX003 (ip), vehicle: saline with Tween-80) was 103 % of control, the T/C (dose: 100.0 mg/kg/injection, schedule: Q01DX005 (ip), vehicle: water) was 100 % of control and the T/C [1] was 104 % of control. The T/C (dose: 100.0 mg/kg/injection, schedule: Q04DX003 (ip), vehicle: water) was 88 % of control, the T/C (dose: 200.0 mg/kg/injection, schedule: Q01DX005 (ip), vehicle: water) was 94 % of control and the T/C [2] was 100 % of control. The T/C (dose: 200.0 mg/kg/injection, schedule: Q04DX003 (ip), vehicle: water) was 91 % of control.

For `O=[N+]([O-])c1c[c]([Hg][Cl])c(O)[c]([Hg][Cl])c1`, the T/C (dose: 3.13 mg/kg/injection, schedule: Q01DX009 (ip), vehicle: saline with Tween-80) was 88 % of control, the T/C (dose: 3.13 mg/kg/injection, schedule: Q04DX002 (ip), vehicle: saline with Tween-80) was 107 % of control and the T/C (dose: 3.13 mg/kg/injection, schedule: Q04DX003 (ip), vehicle: saline with Tween-80) was 88 % of control. The T/C (dose: 6.25 mg/kg/injection, schedule: Q01DX009 (ip), vehicle: saline with Tween-80) was 86 % of control, the T/C (dose: 6.25 mg/kg/injection, schedule: Q04DX002 (ip), vehicle: saline with Tween-80) was 96 % of control and the T/C (dose: 6.25 mg/kg/injection, schedule: Q04DX003 (ip), vehicle: saline with Tween-80) was 97 % of control. The T/C (dose: 12.5 mg/kg/injection, schedule: Q01DX009 (ip), vehicle: saline with Tween-80) was 91 % of control, the T/C (dose: 12.5 mg/kg/injection, schedule: Q04DX002 (ip), vehicle: saline with Tween-80) was 93 % of control and the T/C (dose: 12.5 mg/kg/injection, schedule: Q04DX003 (ip), vehicle: saline with Tween-80) was 87 % of control.

In the case of `Nc1c(Cl)cc2c(c1Br)Cc1ccccc1-2`, the T/C (dose: 50.0 mg/kg/injection, schedule: Q01DX001 (ip), vehicle: carboxymethylcellulose (CMC)) is reported as 107 % of control, the T/C [3] is reported as 107 % of control and the T/C [4] is reported as 117 % of control. For the same compound, the T/C [5] was 107 % of control.

With `O=C(CCC(=O)Oc1ccc(S(=O)(=O)F)cc1)Oc1ccc(S(=O)(=O)F)cc1` the T/C [6] was 92 % of control, the T/C [7] was 118 % of control and the T/C (dose: 400.0 mg/kg/injection, schedule: Q04DX003 (ip), vehicle: saline) was 103 % of control.

`CC1([N+](=O)[O-])COP(=O)(Nc2cccc(Cl)c2)OC1` (configuration not stated) was tested, and the T/C [3] was 95 % of control, the T/C [4] was 95 % of control and the T/C [5] was 101 % of control.

With `Nc1nc(N)nc(CBr)n1` the T/C (dose: 12.5 mg/kg/injection, schedule: Q01DX001 (ip), vehicle: Klucel (hydroxypropylcellulose) (HPC)) was 103 % of control and the T/C (dose: 50.0 mg/kg/injection, schedule: Q01DX001 (ip), vehicle: Klucel (hydroxypropylcellulose) (HPC)) was 115 % of control.

`O=C(N/N=C/c1ccc(Cl)cc1Cl)C(O)(c1ccccc1)c1ccccc1` was tested, and the T/C [3] was 111 % of control, the T/C [4] was 101 % of control and the T/C [5] was 92 % of control.

With `CC1(C)Cc2ccccc2C(c2ccccn2)=N1` the T/C [8] was 96 % of control, the T/C [9] was 112 % of control and the T/C [10] was 112 % of control.

With `CN(C)CC1C(O)C2CCN1CC2` (configuration not stated) the T/C [6] was 103 % of control and the T/C [7] was 103 % of control.

In the case of `COc1cc(C=C(C#N)C#N)ccc1O`, the T/C (dose: 12.5 mg/kg/injection, schedule: Q01DX009 (ip), vehicle: Klucel (hydroxypropylcellulose) (HPC)) is reported as 103 % of control and the T/C (dose: 25.0 mg/kg/injection, schedule: Q01DX009 (ip), vehicle: Klucel (hydroxypropylcellulose) (HPC)) is reported as 97 % of control.

For `O=C(O)c1c(O)c(Br)cc(Br)c1O`, the T/C (dose: 100.0 mg/kg/injection, schedule: Q01DX001 (ip), vehicle: other) was 109 % of control, the T/C (dose: 200.0 mg/kg/injection, schedule: Q01DX001 (ip), vehicle: other) was 104 % of control and the T/C (dose: 400.0 mg/kg/injection, schedule: Q01DX001 (ip), vehicle: other) was 90 % of control.

With `COc1cc(C=C(C#N)C#N)cc(I)c1O` the T/C (dose: 25.0 mg/kg/injection, schedule: Q04DX003 (ip), vehicle: Klucel (hydroxypropylcellulose) (HPC)) was 98 % of control and the T/C (dose: 50.0 mg/kg/injection, schedule: Q04DX003 (ip), vehicle: Klucel (hydroxypropylcellulose) (HPC)) was 104 % of control.

For `CCOC(=O)c1ccc(NC(C)=O)o1`, the T/C (dose: 10.0 mg/kg/injection, schedule: Q01DX001 (ip), vehicle: carboxymethylcellulose (CMC)) was 107 % of control, the T/C (dose: 20.0 mg/kg/injection, schedule: Q01DX001 (ip), vehicle: carboxymethylcellulose (CMC)) was 95 % of control and the T/C (dose: 40.0 mg/kg/injection, schedule: Q01DX001 (ip), vehicle: carboxymethylcellulose (CMC)) was 103 % of control. The T/C (dose: 80.0 mg/kg/injection, schedule: Q01DX001 (ip), vehicle: carboxymethylcellulose (CMC)) was 92 % of control.

In the case of `CCN(CC)CCOc1ccc(N)cc1`, the T/C [11] is reported as 94 % of control, the T/C [12] is reported as 94 % of control and the T/C [13] is reported as 100 % of control.

With `CCOC(=O)c1ccc(=O)n(C(C)C)c1` the T/C (dose: 100.0 mg/kg/injection, schedule: Q01DX009 (ip), vehicle: Klucel (hydroxypropylcellulose) (HPC)) was 104 % of control, the T/C (dose: 200.0 mg/kg/injection, schedule: Q01DX009 (ip), vehicle: Klucel (hydroxypropylcellulose) (HPC)) was 98 % of control and the T/C (dose: 400.0 mg/kg/injection, schedule: Q01DX009 (ip), vehicle: Klucel (hydroxypropylcellulose) (HPC)) was 102 % of control.

For `CCOC(=O)c1cnc(SC)nc1NNc1nc(SC)ncc1C(=O)OCC`, the T/C [8] was 93 % of control, the T/C [9] was 90 % of control and the T/C [10] was 93 % of control.

With `c1ccc2c(c1)oc1ccccc12` the T/C [11] was 102 % of control, the T/C [12] was 102 % of control and the T/C [13] was 96 % of control.

In the case of `NN1Cc2ccc3c4c(ccc(c24)C1)C=C3`, the T/C (dose: 15.0 mg/kg/injection, schedule: Q01DX001 (ip), vehicle: carboxymethylcellulose (CMC)) is reported as 108 % of control, the T/C (dose: 30.0 mg/kg/injection, schedule: Q01DX001 (ip), vehicle: carboxymethylcellulose (CMC)) is reported as 97 % of control and the T/C (dose: 60.0 mg/kg/injection, schedule: Q01DX001 (ip), vehicle: carboxymethylcellulose (CMC)) is reported as 101 % of control.

In the case of `C[n+]1ccn(Cc2ccc([N+](=O)[O-])cc2)c1`, the T/C [1] is reported as 171 % of control and the T/C [2] is reported as 90 % of control.

`CN1C2CCC1C(O)C(c1ccccc1)C2` (configuration not stated) was tested, and the T/C (dose: 10.0 mg/kg/injection, schedule: Q01DX001 (ip), vehicle: saline) was 106 % of control, the T/C (dose: 20.0 mg/kg/injection, schedule: Q01DX001 (ip), vehicle: saline) was 101 % of control and the T/C (dose: 40.0 mg/kg/injection, schedule: Q01DX001 (ip), vehicle: saline) was 106 % of control.

For `CCN(CC)c1cccc(O)c1`, the T/C [1] was 90 % of control and the T/C [2] was 95 % of control.

In the case of `COc1cc(-c2nc3c4ccccc4c4ccccc4c3[nH]2)cc(OC)c1OC`, the T/C [8] is reported as 94 % of control, the T/C [9] is reported as 96 % of control and the T/C [10] is reported as 105 % of control.

For `COC1(OC)C2CCC1C(OS(=O)(=O)c1ccc(C)cc1)C2` (configuration not stated), the T/C (dose: 100.0 mg/kg/injection, schedule: Q04DX002 (ip), vehicle: Klucel (hydroxypropylcellulose) (HPC)) was 103 % of control, the T/C (dose: 200.0 mg/kg/injection, schedule: Q04DX002 (ip), vehicle: Klucel (hydroxypropylcellulose) (HPC)) was 106 % of control and the T/C (dose: 400.0 mg/kg/injection, schedule: Q04DX002 (ip), vehicle: Klucel (hydroxypropylcellulose) (HPC)) was 100 % of control.

With `Cc1nc(N)[nH]c(=O)c1CCCOc1ccc([N+](=O)[O-])cc1` the T/C (dose: 12.5 mg/kg/injection, schedule: Q04DX002 (ip), vehicle: saline) was 106 % of control, the T/C (dose: 25.0 mg/kg/injection, schedule: Q04DX002 (ip), vehicle: saline) was 102 % of control and the T/C (dose: 50.0 mg/kg/injection, schedule: Q04DX002 (ip), vehicle: saline) was 95 % of control.

With `O=C(O)c1cc(=O)cc(C(=O)O)o1` the T/C [1] was 95 % of control.

Reference: PubChem BioAssay AID248 (DTP/NCI, 2004)
